# Data reported in patent US20200246308A1, “SYNERGISTIC COMBINATIONS OF UROLITHINS A AND B FOR IMPROVING COGNITIVE CAPACITY OR COGNITIVE FUNCTION” (Natreon, Inc., priority 2018, published 2020).
# Entries after “also recorded” stand apart in the source; their conditions may differ.
# How the values were obtained:
# [1] = target: T1, acetylcholinesterase activity in HIP homogenate (Rattus norvegicus, UniProt P37136); experiment: Acetylcholinesterase activity in hippocampal tissue, Amplex Red kit (Example 9C); type: in vivo, Male Wistar rats; conditions: p.o. 7 days: B 50, A 50, Donepezil 3, B:A 10:50 and 50:50 mg/kg, Shilajit 25 mg/kg b.i.d
# T1 construct: The acetylcholinesterase activity in brain tissues was measured using Amplex red assay kit; from tissue; host or cells: rat hippocampus (brain tissue homogenate supernatant)
# T1 sequence (P37136 32-614): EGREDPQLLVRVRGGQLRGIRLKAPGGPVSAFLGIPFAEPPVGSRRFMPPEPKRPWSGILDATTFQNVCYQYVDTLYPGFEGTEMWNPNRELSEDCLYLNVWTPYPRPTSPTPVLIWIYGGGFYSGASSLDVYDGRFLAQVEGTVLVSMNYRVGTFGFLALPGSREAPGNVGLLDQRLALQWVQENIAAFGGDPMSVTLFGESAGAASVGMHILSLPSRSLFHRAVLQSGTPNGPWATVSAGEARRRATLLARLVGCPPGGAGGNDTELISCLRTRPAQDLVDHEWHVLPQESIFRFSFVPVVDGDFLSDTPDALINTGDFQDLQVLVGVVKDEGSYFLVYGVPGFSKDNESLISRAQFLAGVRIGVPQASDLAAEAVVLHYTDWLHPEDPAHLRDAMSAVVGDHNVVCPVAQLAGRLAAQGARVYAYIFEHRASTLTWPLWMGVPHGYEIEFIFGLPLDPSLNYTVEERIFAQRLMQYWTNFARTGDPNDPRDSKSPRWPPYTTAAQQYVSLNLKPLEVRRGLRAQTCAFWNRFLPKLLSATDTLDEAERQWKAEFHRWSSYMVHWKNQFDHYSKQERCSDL
# Description: Drug solution was freshly prepared in 0.3% CMC and administered by oral gavage once a day, for a period of 7 days. Briefly, the whole experiment was conducted for 8 days. Scopolamine (1 mg/kg), a muscarinic receptor antagonist, was dissolved in normal saline (0.9% NaCl) and administered intraperitoneally 1 h after drugs administration on seventh day.
# Sample preparation: The animals were killed by decapitation and the brain tissues were dissected out in ice-cold conditions and stored at −80° C. until use. Tissue was homogenized in 1.0 ml of 0.1M perchloric acid with a Potter-Elvehjem homogenizer. The homogenate was kept in the polypropylene tubes for 15 min after which 40 μl of 4M potassium acetate was added to adjust the pH to 4.0 followed by centrifugation for 15 min at 4000×g. Supernatant was used to estimate acetylcholine and AChE activities.
# Spectrofluorometric assay of acetylcholinesterase activity: The acetylcholinesterase activity in brain tissues was measured using Amplex red assay kit (Molecular Probes, Inc., USA). An acetylcholinesterase standard curve was used in each experiment. Briefly, Begin the reactions by adding 0.1 ml of control (10 μM H2O2) and tissue homogenate were taken in two separate polypropylene tubes and then 0.1 ml working solution of 400 μM Amplex Red reagent containing 2 U/mL HRP, 0.2 U/mL choline oxidase and 100 μM acetylcholine were added to each tube. After incubation for 45 min, the fluorescence was recorded with the help of spectrofluorometer at 530 nm excitation and 590 nm emission wavelengths.
# Statistical analyses: The results were expressed as means±Standard Error mean (SEM). The intergroup variation was measured by one-way ANOVA followed by Student-Newman-Keuls test. […] Statistical analysis was done by using Graph Pad prism version 5 (San Diego, Calif.). A level of p<0.05 was accepted as statistically significant.
# [2] = target: T2, AchE from Electrophorus electricus (electric eel) (Electrophorus electricus, UniProt O42275); experiment: In-vitro AChE inhibition assay, Ellman method; type: biochemical
# T2 construct: purchased Sigma Aldrich
# Description: AchE from Electrophorus electricus (electric eel) CAS: 9000-81-1 was procured from Sigma Aldrich (St. Louis, Mo., USA). 5,5′-dithiobis (2-nitrobenzoic acid) (DTNB-Ellman's reagent) and acetylcholine iodide, (AChI) were procured from local suppliers (HiMedia, Pvt. Ltd., New Delhi, India). All other chemicals and reagents were available commercially from local suppliers (Merck Pvt. Ltd., New Delhi and HiMedia Laboratories Pvt Ltd., New Delhi, India) and were of analytical grade.
# The procedure described by Ellman et al. was used after some modification for AChE inhibition assay. Acetylthiocholine iodide (ATCI), 5,5′-dithiobis (2-nitrobenzoic acid) (DTNB-Ellman's reagent) were purchased from Himedia. Donepezil was used as positive control. Tris-HCl buffer (pH 8) was used to perform the in-vitro assay. […] 50 μL of AChE (0.22 U mL^−1) and 10 μL of test or standard compounds were incubated in 96 well plate for 30 min. at room temperature (See, Table 3).
# (§1) Further, substrate i.e. ATCI (15 mM, 30 μL) was added and it was incubated for additional 30 min. Finally 160 μL (1.5 mM) of DTNB was added and the absorbance was recorded at 415 nm using Epoch microplate reader (BioTek). The IC50 value was calculated using absorbance obtained from the test and standard compounds. The assay was performed in triplicate and in three independent runs.
# Percentage inhibition=(Control−Test)/Control×100 Equation (1)
# 50 μL of AChE (0.22 U mL^−1) and 10 μL of test or standard compounds were incubated in 96 well plate for 30 min. at room temperature.
# as §1, with “(see Equation 1).” for “and in three independent runs.”
# [3] = target: T3, recombinant human Acetylcholinesterase-induced β-Amyloid (Aβ40) Aggregation (Homo sapiens, UniProt P22303); experiment: Inhibition of human recombinant AChE-induced β-amyloid peptide aggregation, ThT method; type: biochemical; conditions: test compounds 50 μM, B:A in μM, 48 h
# T3 construct: purchased Sigma Aldrich
# Description: The Aβ1-40 (10 μM and 30 μM) was incubated alone and independently with different concentrations of test compounds in the ratios shown in Tables 6 and 7, respectively.
# 2 μL of different concentrations of Aβ40 (10 and 30 μM) was incubated with 16 μL of AChE in the presence of different ratio of test compounds to obtain final concentrations of 30 or 10 μM Aβ40, […], 10, 20, 50 μM test compounds and 2 μL assay buffer ([…]). The mixture was incubated at room temperature for 24 or 48 hr in dark (Time period may be changed according to experiment).
# Fluorescence intensities were obtained for Aβ40 aggregation in the presence of inhibitors, in the absence of inhibitors and the blanks or solvent control. After incubation, 178 μL of 20 μM ThT was added.
# The percentage inhibition of the AChE-induced Aβ1-40 aggregation was calculated as follows.
# Chemical reagents and starting materials were employed as above.
# [4] = Table 2, B:A ratios from mg/ml solutions
# [5] = Table 5, Shilajit:B:A combinations from mg/ml solutions
# T3 sequence (P22303 32-614): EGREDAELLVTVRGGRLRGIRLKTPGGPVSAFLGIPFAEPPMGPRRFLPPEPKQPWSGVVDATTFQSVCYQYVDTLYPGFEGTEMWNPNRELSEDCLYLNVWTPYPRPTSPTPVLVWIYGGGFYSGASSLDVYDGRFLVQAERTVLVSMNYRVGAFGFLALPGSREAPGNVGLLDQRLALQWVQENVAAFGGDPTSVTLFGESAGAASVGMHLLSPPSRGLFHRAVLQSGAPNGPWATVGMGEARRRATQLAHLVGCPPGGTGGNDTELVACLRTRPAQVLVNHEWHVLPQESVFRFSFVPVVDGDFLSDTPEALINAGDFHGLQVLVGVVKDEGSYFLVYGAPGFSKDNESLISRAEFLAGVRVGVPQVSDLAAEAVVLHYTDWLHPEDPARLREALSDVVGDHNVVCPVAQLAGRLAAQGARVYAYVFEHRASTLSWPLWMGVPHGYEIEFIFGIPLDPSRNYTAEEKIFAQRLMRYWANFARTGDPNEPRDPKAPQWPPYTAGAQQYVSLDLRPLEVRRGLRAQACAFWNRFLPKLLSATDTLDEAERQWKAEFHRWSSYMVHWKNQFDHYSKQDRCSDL
# T2 sequence (O42275 24-633): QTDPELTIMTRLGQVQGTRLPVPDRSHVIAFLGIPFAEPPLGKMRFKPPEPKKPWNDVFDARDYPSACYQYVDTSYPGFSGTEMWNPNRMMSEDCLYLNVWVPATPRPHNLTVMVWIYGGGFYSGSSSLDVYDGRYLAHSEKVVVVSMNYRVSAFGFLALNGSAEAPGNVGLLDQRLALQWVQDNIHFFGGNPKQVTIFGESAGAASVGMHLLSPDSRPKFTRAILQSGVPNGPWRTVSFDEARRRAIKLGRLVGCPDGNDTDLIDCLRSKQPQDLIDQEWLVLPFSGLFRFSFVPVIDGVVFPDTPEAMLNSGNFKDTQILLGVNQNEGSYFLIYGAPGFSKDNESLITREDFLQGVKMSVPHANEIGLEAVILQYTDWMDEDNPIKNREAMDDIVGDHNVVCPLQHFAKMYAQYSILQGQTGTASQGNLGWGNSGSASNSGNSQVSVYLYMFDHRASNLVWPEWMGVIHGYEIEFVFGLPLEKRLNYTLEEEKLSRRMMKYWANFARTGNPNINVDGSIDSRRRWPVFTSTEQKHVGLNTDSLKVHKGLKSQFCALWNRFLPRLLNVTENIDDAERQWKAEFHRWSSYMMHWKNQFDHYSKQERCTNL
Compound,"Scopolamine-induced increase in acetylcholinesterase activity in HIP homogenate ([1]; listed as 3,8-(OH)2-DBP (A))","IC50 [2, 4] [µg/mL]","IC50 [2, 5] [µg/mL]",inhibition of Aβ40 aggregation ([3]; Aβ40 30 μM) [%],inhibition of Aβ40 aggregation ([3]; amyloid beta 10 μM) [%],Scopolamine-induced increase in acetylcholinesterase activity in HIP homogenate [1]
"O=c1oc2cc(O)ccc2c2ccc(O)cc12 [Urolithin A, 3,8-dihydroxy-dibenzo-alpha-pyrone]",attenuated the scopolamine induced increase acetylcholinesterase activity; also recorded: less effective than 3-OH-DBP (B) 50 mg/kg,0.1793 ± 0.0092,0.1793 ± 0.0092,~30,~34,
"O=c1oc2cc(O)ccc2c2ccccc12 [Urolithin B, 3-hydroxy-dibenzo-alpha-pyrone]",,0.1430 ± 0.0057,0.1430 ± 0.0057,~43,~46,attenuated the scopolamine induced increase acetylcholinesterase activity
